{
  "source": "patent US6770597B2",
  "about": "“Benzohydrazide derivatives as herbicides and desiccant compositions containing them” (Ishihara Sangyo Kaisha, Ltd., priority 2002, dated 2004)",
  "type_in_all_cases": "in vivo",
  "key": {"[1]": {"system": "barnyardgrass (Echinochloa crus-galli, ECHCG)", "assay": "Greenhouse herbicide screen, post-emerge application, phytotoxicity rating", "conditions": "POST emergent, 14 days after application, scale 0-100", "summary_of_the_method": "(§1)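 Sown 1 d (pre) or 8–21 d (post) ahead; sprayed 15–1000 g ai/ha in acetone, 187 l/ha; nozzle 40–45 cm above canopy/soil; scored 0–100 at day 14.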"}, "[2]": {"system": "cocklebur (Xanthium strumarium, XANST)", "assay": "Greenhouse herbicide screen, post-emerge application, phytotoxicity rating", "conditions": "POST emergent, 14 days after application, scale 0-100", "summary_of_the_method": "as §1"}, "[3]": {"system": "common ragweed (Ambrosia artemisiifolia L., AMBEL)", "assay": "Greenhouse herbicide screen, post-emerge application, phytotoxicity rating", "conditions": "POST emergent, 14 days after application, scale 0-100", "summary_of_the_method": "as §1"}, "[4]": {"system": "green foxtail (Setaria viridis, SETVI)", "assay": "Greenhouse herbicide screen, post-emerge application, phytotoxicity rating", "conditions": "POST emergent, 14 days after application, scale 0-100", "summary_of_the_method": "as §1"}, "[5]": {"system": "ivyleaf morningglory (Ipomoea hederacea, IPOHE)", "assay": "Greenhouse herbicide screen, post-emerge application, phytotoxicity rating", "conditions": "POST emergent, 14 days after application, scale 0-100", "summary_of_the_method": "as §1"}, "[6]": {"system": "johnsongrass (Sorghum halepense, SORHA)", "assay": "Greenhouse herbicide screen, post-emerge application, phytotoxicity rating", "conditions": "POST emergent, 14 days after application, scale 0-100", "summary_of_the_method": "as §1"}, "[7]": {"system": "lambsquarters (Chenopodium album, CHEAL)", "assay": "Greenhouse herbicide screen, post-emerge application, phytotoxicity rating", "conditions": "POST emergent, 14 days after application, scale 0-100", "summary_of_the_method": "as §1"}, "[8]": {"system": "large crabgrass (Digitaria sanguinalis, DIGSA)", "assay": "Greenhouse herbicide screen, post-emerge application, phytotoxicity rating", "conditions": "POST emergent, 14 days after application, scale 0-100", "summary_of_the_method": "as §1"}, "[9]": {"system": "redroot pigweed (Amaranthus retrofiexus, AMARE)", "assay": "Greenhouse herbicide screen, post-emerge application, phytotoxicity rating", "conditions": "POST emergent, 14 days after application", "summary_of_the_method": "as §1"}, "[10]": {"system": "sicklepod (Cassia obtusifolia, CASOB)", "assay": "Greenhouse herbicide screen, post-emerge application, phytotoxicity rating", "conditions": "POST emergent, 14 days after application, scale 0-100", "summary_of_the_method": "as §1"}, "[11]": {"system": "velvetleaf (Abutilon theophrasti, ABUTH)", "assay": "Greenhouse herbicide screen, post-emerge application, phytotoxicity rating", "conditions": "POST emergent, 14 days after application, scale 0-100", "summary_of_the_method": "as §1"}, "[12]": {"system": "field corn (Zea mays L., var. Dekalb 535, CORN)", "assay": "Greenhouse herbicide screen, post-emerge application, crop damage rating", "conditions": "POST emergent, 14 days after application, scale 0-100", "summary_of_the_method": "as §1"}, "[13]": {"system": "upland rice (Oryza sp., var.Cocodrie, RICE)", "assay": "Greenhouse herbicide screen, post-emerge application, crop damage rating", "conditions": "POST emergent, 14 days after application, scale 0-100", "summary_of_the_method": "as §1"}, "[14]": {"system": "barnyardgrass (Echinochloa crus-galli, ECHCG)", "assay": "Greenhouse herbicide screen, pre-emerge application, phytotoxicity rating", "conditions": "PRE emergent, 14 days after application, rating scale 0-100", "summary_of_the_method": "as §1"}, "[15]": {"system": "cocklebur (Xanthium strumarium, XANST)", "assay": "Greenhouse herbicide screen, pre-emerge application, phytotoxicity rating", "conditions": "PRE emergent, 14 days after application, rating scale 0-100", "summary_of_the_method": "as §1"}, "[16]": {"system": "common ragweed (Ambrosia artemisiifolia L., AMBEL)", "assay": "Greenhouse herbicide screen, pre-emerge application, phytotoxicity rating", "conditions": "PRE emergent, 14 days after application, rating scale 0-100", "summary_of_the_method": "as §1"}, "[17]": {"system": "green foxtail (Setaria viridis, SETVI)", "assay": "Greenhouse herbicide screen, pre-emerge application, phytotoxicity rating", "conditions": "PRE emergent, 14 days after application, rating scale 0-100", "summary_of_the_method": "as §1"}, "[18]": {"system": "ivyleaf morningglory (Ipomoea hederacea, IPOHE)", "assay": "Greenhouse herbicide screen, pre-emerge application, phytotoxicity rating", "conditions": "PRE emergent, 14 days after application, rating scale 0-100", "summary_of_the_method": "as §1"}, "[19]": {"system": "johnsongrass (Sorghum halepense, SORHA)", "assay": "Greenhouse herbicide screen, pre-emerge application, phytotoxicity rating", "conditions": "PRE emergent, 14 days after application, rating scale 0-100", "summary_of_the_method": "as §1"}, "[20]": {"system": "lambsquarters (Chenopodium album, CHEAL)", "assay": "Greenhouse herbicide screen, pre-emerge application, phytotoxicity rating", "conditions": "PRE emergent, 14 days after application, rating scale 0-100", "summary_of_the_method": "as §1"}, "[21]": {"system": "large crabgrass (Digitaria sanguinalis, DIGSA)", "assay": "Greenhouse herbicide screen, pre-emerge application, phytotoxicity rating", "conditions": "PRE emergent, 14 days after application, rating scale 0-100", "summary_of_the_method": "as §1"}, "[22]": {"system": "redroot pigweed (Amaranthus retrofiexus, AMARE)", "assay": "Greenhouse herbicide screen, pre-emerge application, phytotoxicity rating", "conditions": "PRE emergent, 14 days after application, rating scale 0-100", "summary_of_the_method": "as §1"}, "[23]": {"system": "sicklepod (Cassia obtusifolia, CASOB)", "assay": "Greenhouse herbicide screen, pre-emerge application, phytotoxicity rating", "conditions": "PRE emergent, 14 days after application, rating scale 0-100", "summary_of_the_method": "as §1"}, "[24]": {"system": "velvetleaf (Abutilon theophrasti, ABUTH)", "assay": "Greenhouse herbicide screen, pre-emerge application, phytotoxicity rating", "conditions": "PRE emergent, 14 days after application, rating scale 0-100", "summary_of_the_method": "as §1"}, "[25]": {"system": "field corn (Zea mays L., var. Dekalb 535, CORN)", "assay": "Greenhouse herbicide screen, pre-emerge application, crop damage rating", "conditions": "PRE emergent, 14 days after application, rating scale 0-100", "summary_of_the_method": "as §1"}, "[26]": {"system": "upland rice (Oryza sp., var.Cocodrie, RICE)", "assay": "Greenhouse herbicide screen, pre-emerge application, crop damage rating", "conditions": "PRE emergent, 14 days after application, rating scale 0-100", "summary_of_the_method": "as §1"}},
  "data": [
    {"smiles": "Cn1c(C(F)(F)F)cc(=O)n(-c2cc(C(=O)NN=C(c3ccccc3)c3ccccc3)c(Cl)cc2F)c1=O", "note": "[Compound 6-15]", "values": [
      {"measurement": "phytotoxicity rating ECHCO", "setting": "[1]; 63 g ai/ha", "result": 50},
      {"measurement": "phytotoxicity rating ECHCO", "setting": "[1]; 250 g ai/ha", "result": 65},
      {"measurement": "phytotoxicity rating XANST", "setting": "[2]; 63 g ai/ha", "result": 70},
      {"measurement": "phytotoxicity rating XANST", "setting": "[2]; 250 g ai/ha", "result": 75},
      {"measurement": "phytotoxicity rating AMBEL", "setting": "[3]; 63 g ai/ha", "result": 80},
      {"measurement": "phytotoxicity rating AMBEL", "setting": "[3]; 250 g ai/ha", "result": 80},
      {"measurement": "phytotoxicity rating SETVI", "setting": "[4]; 63 g ai/ha", "result": 55},
      {"measurement": "phytotoxicity rating SETVI", "setting": "[4]; 250 g ai/ha", "result": 60},
      {"measurement": "phytotoxicity rating IPOHE", "setting": "[5]; 63 g ai/ha", "result": 75},
      {"measurement": "phytotoxicity rating IPOHE", "setting": "[5]; 250 g ai/ha", "result": 100},
      {"measurement": "phytotoxicity rating SORHA", "setting": "[6]; 63 g ai/ha", "result": 0},
      {"measurement": "phytotoxicity rating SORHA", "setting": "[6]; 250 g ai/ha", "result": 15},
      {"measurement": "phytotoxicity rating CHEAL", "setting": "[7]; 63 g ai/ha", "result": 90},
      {"measurement": "phytotoxicity rating CHEAL", "setting": "[7]; 250 g ai/ha", "result": 90},
      {"measurement": "phytotoxicity rating DIGSA", "setting": "[8]; 63 g ai/ha", "result": 20},
      {"measurement": "phytotoxicity rating DIGSA", "setting": "[8]; 250 g ai/ha", "result": 50},
      {"measurement": "phytotoxicity rating AMARE", "setting": "[9]; 63 g ai/ha, scale 0-100 (0 no damage, 100 complete death)", "result": 90},
      {"measurement": "phytotoxicity rating AMARE", "setting": "[9]; 250 g ai/ha, scale 0-100", "result": 90},
      {"measurement": "phytotoxicity rating CASOB", "setting": "[10]; 63 g ai/ha", "result": 70},
      {"measurement": "phytotoxicity rating CASOB", "setting": "[10]; 250 g ai/ha", "result": 75},
      {"measurement": "phytotoxicity rating ABUTH", "setting": "[11]; 63 g ai/ha", "result": 80},
      {"measurement": "phytotoxicity rating ABUTH", "setting": "[11]; 250 g ai/ha", "result": 98},
      {"measurement": "crop damage rating CORN", "setting": "[12]; 63 g ai/ha", "result": 20},
      {"measurement": "crop damage rating CORN", "setting": "[12]; 250 g ai/ha", "result": 25},
      {"measurement": "crop damage rating RICE", "setting": "[13]; 63 g ai/ha", "result": 0},
      {"measurement": "crop damage rating RICE", "setting": "[13]; 250 g ai/ha", "result": 0},
      {"measurement": "phytotoxicity rating ECHCG", "setting": "[14]; 63 g ai/ha", "result": 0},
      {"measurement": "phytotoxicity rating ECHCG", "setting": "[14]; 250 g ai/ha", "result": 35},
      {"measurement": "phytotoxicity rating XANST", "setting": "[15]; 63 g ai/ha", "result": 30},
      {"measurement": "phytotoxicity rating XANST", "setting": "[15]; 250 g ai/ha", "result": 60},
      {"measurement": "phytotoxicity rating AMBEL", "setting": "[16]; 63 g ai/ha", "result": 70},
      {"measurement": "phytotoxicity rating AMBEL", "setting": "[16]; 250 g ai/ha", "result": 95},
      {"measurement": "phytotoxicity rating SETVI", "setting": "[17]; 63 g ai/ha", "result": 75},
      {"measurement": "phytotoxicity rating SETVI", "setting": "[17]; 250 g ai/ha", "result": 98},
      {"measurement": "phytotoxicity rating IPOHE", "setting": "[18]; 63 g ai/ha", "result": 15},
      {"measurement": "phytotoxicity rating IPOHE", "setting": "[18]; 250 g ai/ha", "result": 95},
      {"measurement": "phytotoxicity rating SORHA", "setting": "[19]; 63 g ai/ha", "result": 40},
      {"measurement": "phytotoxicity rating SORHA", "setting": "[19]; 250 g ai/ha", "result": 95},
      {"measurement": "phytotoxicity rating CHEAL", "setting": "[20]; 63 g ai/ha", "result": 100},
      {"measurement": "phytotoxicity rating CHEAL", "setting": "[20]; 250 g ai/ha", "result": 100},
      {"measurement": "phytotoxicity rating DIGSA", "setting": "[21]; 63 g ai/ha", "result": 85},
      {"measurement": "phytotoxicity rating DIGSA", "setting": "[21]; 250 g ai/ha", "result": 99},
      {"measurement": "phytotoxicity rating AMARE", "setting": "[22]; 63 g ai/ha", "result": 100},
      {"measurement": "phytotoxicity rating AMARE", "setting": "[22]; 250 g ai/ha", "result": 100},
      {"measurement": "phytotoxicity rating CASOB", "setting": "[23]; 63 g ai/ha", "result": 65},
      {"measurement": "phytotoxicity rating CASOB", "setting": "[23]; 250 g ai/ha", "result": 99},
      {"measurement": "phytotoxicity rating ABUTH", "setting": "[24]; 63 g ai/ha", "result": 100},
      {"measurement": "phytotoxicity rating ABUTH", "setting": "[24]; 250 g ai/ha", "result": 100},
      {"measurement": "crop damage rating CORN", "setting": "[25]; 63 g ai/ha", "result": 0},
      {"measurement": "crop damage rating CORN", "setting": "[25]; 250 g ai/ha", "result": 0},
      {"measurement": "crop damage rating RICE", "setting": "[26]; 63 g ai/ha", "result": 0},
      {"measurement": "crop damage rating RICE", "setting": "[26]; 250 g ai/ha", "result": 0}
    ]}
  ]
}
